Source: the OPERA property sets (Mansouri et al. 2018)

conditions: not given

Compound	boiling point [°C]	log10 vapour pressure (mmHg)	melting point [°C]	ready biodegradability	log10 Henry constant (atm·m³/mol)	log10 Koa	log10 Koc (L/kg)	log10 biodegradation half-life (days)
CC(C)OB(OC(C)C)OC(C)C	140	0.875	–	–	–	–	–	–
Nc1ccnc2ccccc12	–	–	155	–	–	–	–	–
CC(/C=C/C=C(C)/C=C/[C@@]12O[C@]1(C)C[C@@H](O)CC2(C)C)=C\C=C\C=C(C)\C=C\C=C(C)\C=C\[C@@]12O[C@]1(C)C[C@@H](O)CC2(C)C	–	–	208	–	–	–	–	–
COC(=O)C(F)(F)C(F)(F)F	59.5	–	–	–	–	–	–	–
CCCC[P+](CCCC)(CCCC)Cc1ccc(Cl)cc1Cl.[Cl-]	–	-6.15	117	–	–	–	–	–
BrCCCCCCBr	246	–	-2.3	–	–	–	–	–
O=S(=O)(O)c1ccc(-c2ccc(S(=O)(=O)O)cc2)cc1	–	–	72.5	–	–	–	–	–
C=CC=C	-4.4	3.32	-109	–	–	–	–	–
N#CC#CC#N	–	–	20.5	–	–	–	–	–
ClCCCOc1ccccc1	250	–	12	–	–	–	–	–
CC(C)(OOC(C)(C)c1ccccc1)c1ccccc1	396	–	–	not readily biodegradable	–	–	–	–
CCOC(=O)C(F)(F)F	61	–	–	–	–	–	–	–
CC(COc1ccccc1)NC(C)C(O)c1ccc(O)cc1 (stereo not drawn)	–	–	103	–	–	–	–	–
NCCCCN	158	–	27.5	–	–	–	–	–
COc1ccc(C)cc1C	192	–	–	–	–	–	–	–
CCCCCCCCCCCC(=O)c1ccccc1	–	–	47	–	–	–	–	–
C/C=C1/C[C@@H](C)[C@](O)(CO)C(=O)OCC2=CCN3CC[C@@H](OC1=O)[C@@H]23	–	–	212	–	–	–	–	–
O=C(Cl)C(=O)Cl	63.5	–	-16	–	–	–	–	–
CC(C)c1ccncc1	178	–	-54.9	–	–	–	–	–
CCCCCCCCCCCBr	–	-1.92	-9	–	–	–	–	–
C=C(F)F	-85.7	4.48	-144	–	–	–	–	–
COCC(C)C	58.6	2.32	–	–	–	–	–	–

Compound	boiling point [°C]	log10 vapour pressure (mmHg)	melting point [°C]	ready biodegradability	log10 Henry constant (atm·m³/mol)	log10 Koa	log10 Koc (L/kg)	log10 biodegradation half-life (days)
CCCC/C=C/CCCCC	192	–	-83.8	–	–	–	–	–
COc1ccc(C(=O)O)c(OC)c1	–	–	109	–	–	–	–	–
O=C(O)c1ccccc1SSc1ccccc1C(=O)O	–	–	288	–	–	–	–	–
Clc1ccccc1	132	1.08	-45.2	not readily biodegradable	-2.51	3.31	2.15	–
C=COCCCCCCCCCC	–	–	-41	–	–	–	–	–
CN[C@@H](C)[C@H](O)c1ccccc1	255	–	–	–	–	–	–	–
C=C(C)CCC	62.1	2.29	–	–	–	–	–	–
OCCN1CC1	168	–	–	–	–	–	–	–
C=CC1CCC(O)C(O)C1 (stereo not drawn)	–	–	–	not readily biodegradable	–	–	–	–
BrC1Cc2ccccc2C1Br (stereo not drawn)	–	–	32	–	–	–	–	–
Cc1c(C)c(C)c(C)c(C)c1C	263	-3.07	166	–	–	6.31	–	–
Nc1ccc(-c2ccccc2)cc1	302	–	53.5	–	–	–	–	–
O=C(c1ccccc1)c1ccc2n1CCC2C(=O)O (stereo not drawn)	–	–	160	–	–	–	–	–
Nc1c(F)c(F)c(F)c(F)c1F	153	–	35.5	–	–	–	–	–
O=S(=O)(O)c1ccc(Nc2ccccc2)cc1	–	–	206	–	–	–	–	–
FC1(F)OC1(F)F	-63.5	–	-118	–	–	–	–	–
OCCCCC(F)(F)F	148	–	–	–	–	–	–	–
N#Cc1cccc([N+](=O)[O-])c1	–	–	116	–	–	–	–	–
O=C1NC(=O)C([N+](=O)[O-])C(=O)N1	–	–	180	–	–	–	–	–
Brc1cccc2ccccc12	281	-2.01	-1.8	–	–	–	–	–
O=S(=O)(O)C(F)(F)C(F)(F)C(F)(F)C(F)(F)C(F)(F)F	225	–	–	–	–	–	–	–
O=C(O)CCI	–	–	81.5	–	–	–	–	–

Compound	boiling point [°C]	log10 vapour pressure (mmHg)	melting point [°C]	ready biodegradability	log10 Henry constant (atm·m³/mol)	log10 Koa	log10 Koc (L/kg)	log10 biodegradation half-life (days)
CCC(C)C(C)=O (stereo not drawn)	118	1.06	–	–	–	–	–	–
CCCCCC#CC(=O)OC	218	–	–	–	–	–	–	–
CC(=O)CCCO	209	–	–	–	–	–	–	–
Cn1cnc2nc(N)[nH]c(=O)c21	–	–	370	–	–	–	–	–
NC(=O)C=Cc1ccccc1	–	–	149	–	–	–	–	–
Oc1ccc2c(c1)CCC2	253	–	58	–	–	–	3.4	–
OCCN1CCN(CCO)CC1	–	–	135	–	–	–	–	–
CC(CNC1CCCCC1)OC(=O)c1ccccc1.Cl (stereo not drawn)	–	–	178	–	–	–	–	–
S=C1NCCS1	–	–	106	–	–	–	–	–
CCOC(=O)C(C#N)(CC)CC	214	–	–	–	–	–	–	–
O=C(O)/C=C(/Br)C(=O)O	–	–	163	–	–	–	–	–
Oc1ccc(NCc2ccccc2)cc1	–	–	88	–	–	–	–	–
CC1(C)CCCNC1	137	–	–	–	–	–	–	–
ClC(Cl)=C(Cl)C(Cl)Cl	185	–	–	–	–	–	–	–
O=C(O)c1cccc(Cl)c1Cl	–	-3.64	169	–	–	–	–	–
Cc1ncc(CO)c(C(=O)O)c1O	–	–	248	–	–	–	–	–
CCCCCCCCCCCCCCCCCCCCCCCCCCCC(=O)O	–	–	90.9	–	–	–	–	–
C=C1[C@H]2CC[C@@H]3[C@H]2C(C)(C)CCC[C@]13C	258	–	–	–	–	–	–	–
S=C=Nc1cccc(Br)c1	256	–	–	–	–	–	–	–
CCCC(C)(C)C(=O)Nc1ccc(Cl)cc1	–	–	87.5	–	–	–	–	–
O=[N+]([O-])Nc1ccccc1	–	–	47.3	–	–	–	–	–
C=C(C)CCl	71.5	2.01	–	readily biodegradable	–	–	–	–

Compound	boiling point [°C]	log10 vapour pressure (mmHg)	melting point [°C]	ready biodegradability	log10 Henry constant (atm·m³/mol)	log10 Koa	log10 Koc (L/kg)	log10 biodegradation half-life (days)
c1ccc(-c2ccccc2)cc1	256	-2.05	–	readily biodegradable	-3.51	6.15	3.27	1.49
Cn1ccc(=O)[nH]c1=O	–	-3.29	237	–	–	–	–	–
C=C(C)C1CC=C(C)C(O)C1 (stereo not drawn)	228	–	–	–	–	–	–	–
Cc1cc(C)c2ncccc2c1	268	–	–	–	–	–	–	–
Nc1ccc(N)nc1	–	–	110	readily biodegradable	–	–	–	–
CC(=O)Oc1ccc(C2(c3ccc(OC(C)=O)cc3)Oc3ccccc3NC2=O)cc1	–	–	190	–	–	–	–	–
Cc1ccc(N(CCO)CCO)cc1	339	–	–	–	–	–	–	–
COC(=O)c1cc(Cl)cc(N)c1Cl	–	–	–	–	–	–	2.74	–
CC(=O)C=CC=Cc1ccccc1	–	–	68	–	–	–	–	–
Nc1nncs1	–	–	191	–	–	–	–	–
CCCCCCCCCCCCCCCCCCCCBr	–	-6.08	37.5	–	–	–	–	–
O=C1CCCCO1	219	–	-12.5	–	–	–	–	–
CCC(C)(C#N)/N=N/C(C)(C#N)CC (stereo not drawn)	–	–	50	–	–	–	–	–
C=CCOCC=C	94	–	-6	–	–	–	–	–
CCCCCC1CCCCC1	204	-0.429	-57.5	–	–	–	–	–
CCC(CC)OC(C)=O	133	–	–	–	–	–	–	–
NCCNCCNCCN	266	–	12	not readily biodegradable	–	–	–	–
COC(=O)c1ccccc1S(=O)(=O)NC(=O)N(C)c1nc(C)nc(OC)n1	–	-9.41	141	–	-13	–	1.72	–
CN1C(=O)C(=NNC(N)=S)c2ccccc21	–	–	245	–	–	–	–	–
CCB(O)O	–	–	40	–	–	–	–	–
S=C([S-])[S-]	–	–	-30	–	–	–	–	–
CCN(CC)c1ccc(Cl)cc1	252	–	45.5	–	–	–	–	–

Compound	boiling point [°C]	log10 vapour pressure (mmHg)	melting point [°C]	ready biodegradability	log10 Henry constant (atm·m³/mol)	log10 Koa	log10 Koc (L/kg)	log10 biodegradation half-life (days)
ONc1ccccc1	–	–	83.5	–	–	–	–	–
CC1CCC(=O)CC1	170	0.176	-40.6	–	–	–	–	–
BrCCOc1ccccc1	–	–	39	–	–	–	–	–
CC(C)(CO)Cc1ccccc1	–	–	34.5	–	–	–	–	–
CNC(=O)Oc1ccccc1C(C)C	–	-4.68	94	not readily biodegradable	–	–	–	–
Cn1cncc1C[C@H]1COC(=O)[C@@H]1[C@@H](O)c1ccccc1	–	–	179	–	–	–	–	–
NCCCCCCO	–	-2.62	57	–	–	–	–	–
Cc1cc(C)c(C)cc1C	197	-0.277	79.3	–	–	–	3.12	0.845
C[C@@H]1N[C@@H]2CCCCCCCC(=O)O[C@H]3CC[C@@H](CCCCCCCC(=O)O[C@H]1CC2)N[C@H]3C	–	–	121	–	–	–	–	–
CCCCCCCCCCCCN1CCCCCC1=O	–	–	-7	–	–	–	–	–
O=C(OCCOc1ccc(Cl)cc1Cl)c1ccccc1	–	–	66	–	–	–	–	–
CC(C)[C@H](C)CC[C@@H](C)[C@H]1CC[C@H]2[C@@H]3CC=C4C[C@@H](O)CC[C@]4(C)[C@H]3CC[C@]12C	–	–	158	–	–	–	–	–
Cc1cc(O)c2c(c1)C(=O)c1cc(O)cc(O)c1C2=O	–	–	257	–	–	–	–	–
COc1ccc(CCCO)cc1	–	–	26	–	–	–	–	–
CN(C)c1ccc(N=O)cc1	–	–	92.5	–	–	–	–	–
OCc1ccccc1Cl	230	–	73	–	–	–	–	–
O=C1CCCN1	245	-2.02	23	–	–	–	–	–
O=C(O)c1cc(Cl)ccc1[N+](=O)[O-]	–	–	139	–	–	–	–	–
FC(F)(F)C(Cl)=C(Cl)C(F)(F)F	68.5	–	-67.3	–	–	–	–	–

same assay, conditions: fish

Compound	log10 BCF	log10 biotransformation half-life (days)
CC(C)(OOC(C)(C)c1ccccc1)c1ccccc1	2.62	-0.01
Clc1ccccc1	1.25	-1.02
c1ccc(-c2ccccc2)cc1	2.64	–
c1ccc2cc3c(ccc4c5ccccc5ccc34)cc2c1	–	0.58
CNC(=O)Oc1ccccc1C(C)C	0.95	-1.25
